Test results reported in ChEMBL document CHEMBL3430912, “GSK Tres Cantos Anti-Kinetoplastid Screening (TCAKS) Data”.

Columns and labels:
Leishmania donovani [1] = test: GSK_TCAKS: pIC50 Leishmania donovani Imaging: Amastigotes/Macrophages. Assay plates (384-well) were prepared by adding 250nL of compound to each well. For single shot assay, the final compound concentration was 5 uM. […] Automated image analysis was performed with a script developed on Acapella High Content Imaging and Analysis Software (PerkinElmer). Output: Average number of amastigotes per macrophage cell were reported for each well.; format: functional, organism-based, Homo sapiens; settings: THP-1
[2] = system: Trypanosoma brucei brucei; test: GSK_TCAKS: pIC50 Trypanosoma brucei viability assay using fluorescence intensity. Assay plates (1536-well) were prepared by dispensing 25nL of compound solution per well using an Echo acoustic dispenser (Labcyte).; format: functional, organism-based; settings: Lister 427, 2 h
Trypanosoma cruzi [3] = test: GSK_TCAKS: pIC50 Trypanosoma cruzi viability assay using beta-GAL activity. This assay was run at single shot at 5uM compound concentration per well. The biological reagents consisted of NIH-3T3 host cells and trypomastigotes parasitic cells; both cell types were set to a 3.3 * 10^5 cells/mL dilution in assay DMEM by means of a CASY cell counter device using a 60um capillary. 6 uL of the mixture were dispensed per well (about 1 * 10^3 host-cells and 1 * 10^3 parasites) with a Multidrop Combi dispenser. […] In all wells, the percentage of DMSO never exceeded 0.5%. Plates incubated for four days at 37C, 5% CO2. The substrate used for the assay fluorescence intensity (FLINT) readout was resorufin-beta-D-galactopiranoside (Sigma-Aldrich) at 5uM per well. It was diluted in PBS supplemented with the soft detergent Igepal (Fluka).; format: functional, organism-based, Mus musculus; settings: Tulahuen, NIH3T3
Trypanosoma cruzi [4] = test: (§1) GSK_TCAKS: pIC50 H2C9 Imaging: H9c2 Host Cardiomyocytes. […] Cells were then washed once with PBS before infection. T. cruzi trypomastigotes, collected at days 5 to 8 after infection from LLC-MK2 parasite infected cultures, were allowed to swim out for 4h at 37C from a centrifuged pellet (2,500 rpm/10 min/room temperature). Trypomastigotes were then collected and counted in a CASY Cell Counter. Trypomastigotes, in supplemented DMEM, were added to H9c2 cultures in a multiplicity of infection of 1 and incubated for 18 h. Cells were washed once with PBS before incubation of the infected H9c2 monolayer with trypsin (Life-Technologies) to detach cells from the flask. Cells were counted in a CASY Cell Counter using a 150 um capillary and their density set at 5 * 10^4 cells per mL in supplemented assay DMEM. Infected H9c2 were dispensed into 384-well poly-lysine coated assay plates at 50uL per well using a Multidrop Combi dispenser. After seeding them, the plates were incubated at 37C, 5% CO2 for 72h. Cultures were then fixed and stained by addition of 50 uL of a solution containing 8% formaldehyde and 4 uM DRAQ5 DNA dye (BioStatus, UK) per well. […] Five images were collected per well for reliable statistical analysis. Automated image analysis was performed with a script developed on Acapella High Content Imaging and Analysis Software (PerkinElmer). Output: Number of H9c2 Host Cardiomyocytes nuclei to determine drug-related cytotoxicity.; format: functional, organism-based, Rattus norvegicus; settings: H9c2, 4 h
Leishmania donovani [5] = test: GSK_TCAKS: pIC50 Leishmania donovani Imaging: Infected Macrophages. Assay plates (384-well) were prepared by adding 250nL of compound to each well. For single shot assay, the final compound concentration was 5 uM. […] Automated image analysis was performed with a script developed on Acapella High Content Imaging and Analysis Software (PerkinElmer). Output: Percent of infected macrophage cells were reported for each well.; format: functional, organism-based, Homo sapiens; settings: THP-1
[6] = system: Trypanosoma brucei brucei; test: GSK_TCAKS: pIC50 Trypanosoma brucei viability assay using luminiscence. Assay plates (1536-well) were prepared. T. brucei cultures were harvested and counted in a CASY cell counter. A parasite suspension was prepared at a final concentration of 5 * 10^4 cells/mL in complete HMI9 medium and 6uL was dispensed to all wells containing compounds using a Multidrop Combi dispenser. 6uL of HMI9 media with 0.4% DMSO were dispensed to control columns. Plates were incubated for 24 h at 37C, 5% CO2 then tempered for 10 min at room temperature. ATP content was quantified by adding 4 uL of CellTiter-Glo Reagent (Promega) according to the manufacturer's instructions. Luminescence was measured using a ViewLux.; format: functional, organism-based; settings: Lister 427, CASY
Leishmania donovani [7] = test: GSK_TCAKS: pIC50 Leishmania donovani viability assay using fluorescence intensity. Assay plates (1536-well) were prepared by adding 30nL per well of compound. For single shot assay, the final compound concentration was 5uM. […] Briefly, eGFP LdBOB axenic amastigotes were harvested, fixed and counted in a CASY cell counter (Roche-Applied Science). A final concentration of 1.5 * 10^5 cells per well were prepared in amastigote media containing 500 U/mL penicillin/streptomycin (Invitrogen) and 6uL was dispensed to each experimental well using a Multidrop Combi dispenser (Thermo Scientific). 6uL of assay media was dispensed to control columns used as reference for 100% compound response. Following incubation for 72 h at 37C, 5% CO2, 2 uL of resazurin was added to each well at a final concentration of 0.5 mM in phosphate buffered saline (PBS) with IGEPAL (Sigma-Aldrich), 0.05% (v/v).; format: functional, organism-based
[8] = GSK_TCAKS: pIC50 HepG2 human cell line viability assay using luminiscence. […] Seeding density was checked to ensure that new mono-layers were not more than 50% confluent at the time of harvesting. Cell suspension was added to 500 mL of the same medium at a final density of 1.2 * 10^5 cells/mL. This cell suspension was dispensed (25 uL, 3000 cells per well) into 384-well clear-bottom plates using a Multidrop Combi dispenser. Prior to addition of the cell suspension, the screening compounds (250 nL) were pre-dispensed into the plates with an Echo liquid handler. Plates were incubated for 48 h at 37C, 5% CO2. After incubation, plates equilibrated at room temperature for 30 min before proceeding to develop the luminescent signal. The signal developer, CellTiter-Glo Reagent, was allowed to equilibrate at room temperature for 30 min and added to the plates (25uL per well) using a Multidrop Combi dispenser. Plates were left for 10 min at room temperature for stabilization and then read using a ViewLux.; format: toxicity, cell-based
Trypanosoma cruzi [9] = test: as §1, with “Trypanosoma cruzi” for “H2C9”, “Amastigotes/Cell.” for “H9c2 Host Cardiomyocytes.”, “number” for “Number”, “amastigotes per cell as infection level measurement.” for “H9c2 Host Cardiomyocytes nuclei to determine drug-related cytotoxicity.”; format: functional, organism-based, Rattus norvegicus; settings: H9c2, 4 h
[10] = target: Sterol 14-alpha demethylase (Trypanosoma cruzi (strain CL Brener), UniProt Q7Z1V1); test: GSK_TCAKS: pIC50 CYP51 from Trypanosoma cruzi.; format: functional
Trypanosoma cruzi [11] = test: as §1, with “Trypanosoma cruzi” for “H2C9”, “Infected Cells.” for “H9c2 Host Cardiomyocytes.”, “percentage” for “Number”, “infected cells per well as a second infection marker.” for “H9c2 Host Cardiomyocytes nuclei to determine drug-related cytotoxicity.”; format: functional, organism-based, Rattus norvegicus; settings: H9c2, 4 h
Leishmania donovani [12] = test: GSK_TCAKS: pIC50 Leishmania donovani Imaging: THP-1 Host Macrophages. Assay plates (384-well) were prepared by adding 250nL of compound to each well. For single shot assay, the final compound concentration was 5 uM. […] Automated image analysis was performed with a script developed on Acapella High Content Imaging and Analysis Software (PerkinElmer). Output: THP-1 cell count were reported for each well.; format: functional, organism-based, Homo sapiens

Sequence of Sterol 14-alpha demethylase (Q7Z1V1 whole entry): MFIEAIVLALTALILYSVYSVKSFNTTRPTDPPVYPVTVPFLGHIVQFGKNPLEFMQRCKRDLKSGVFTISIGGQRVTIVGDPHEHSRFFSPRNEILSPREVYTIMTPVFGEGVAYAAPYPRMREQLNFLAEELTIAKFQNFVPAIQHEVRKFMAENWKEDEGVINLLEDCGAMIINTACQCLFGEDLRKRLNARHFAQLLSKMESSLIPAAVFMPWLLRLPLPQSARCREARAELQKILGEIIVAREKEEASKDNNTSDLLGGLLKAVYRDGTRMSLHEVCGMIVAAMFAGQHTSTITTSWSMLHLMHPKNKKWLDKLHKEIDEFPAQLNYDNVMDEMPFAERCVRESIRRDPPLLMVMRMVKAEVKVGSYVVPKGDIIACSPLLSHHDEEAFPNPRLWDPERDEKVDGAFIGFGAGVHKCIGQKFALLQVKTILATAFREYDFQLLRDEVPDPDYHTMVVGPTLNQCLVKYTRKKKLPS

Compound | IC50 (Leishmania donovani [1]) | IC50 [2] | IC50 (Trypanosoma cruzi [3]) | IC50 (Trypanosoma cruzi [4]) | IC50 (Leishmania donovani [5]) | IC50 [6] | IC50 (Leishmania donovani [7]) | IC50 at 48 h [8] | IC50 (Trypanosoma cruzi [9]) | IC50 [10] | IC50 (Trypanosoma cruzi [11]) | IC50 (Leishmania donovani [12])
Cc1ncsc1CNc1cnc(-c2ccc3c(c2)OCCO3)c(-c2cnn(C)c2)c1 | 12.6 µM | 0.126 µM | 12.6 µM | > 50.1 µM | 15.8 µM | 0.2 µM | 25.1 µM | > 100 µM | 20 µM | 7.94 µM | 39.8 µM | 15.8 µM
O=C1NCc2cccc(Nc3nc(N[C@H]4CC[C@H](O)CC4)ncc3Br)c21 | 0.126 µM | 0.0631 µM | 0.631 µM | 0.1 µM | 0.158 µM | 0.126 µM | 0.794 µM | > 100 µM | 0.398 µM | > 100 µM | 1 µM | 0.1 µM
COc1cccc2sc(CN(C)C(=O)C3CNCCN3c3ccc(F)cc3)c(C)c12 (configuration not stated) | 3.98 µM | 0.158 µM | 0.398 µM | 7.94 µM | 6.31 µM | 0.251 µM | 31.6 µM | 12.6 µM | 0.158 µM | 0.251 µM | 0.2 µM | 12.6 µM
COc1ccc(C(=O)Nc2c(C)nn(COc3cccc(C(F)(F)F)c3)c2C)cc1 | > 50.1 µM | 0.794 µM | 25.1 µM | > 50.1 µM | > 50.1 µM | 0.794 µM | > 50.1 µM | > 100 µM | 25.1 µM | 12.6 µM | 39.8 µM | 31.6 µM
Cc1ccc(NC(=O)c2ccc([N+](=O)[O-])s2)cc1S(=O)(=O)N1CCOCC1 | 2 µM | 0.251 µM | 0.2 µM | 5.01 µM | 3.16 µM | 0.794 µM | 2 µM | 15.8 µM | 0.251 µM | 20 µM | 0.398 µM | 39.8 µM
Cc1nc(C(=O)Nc2ccc3c(c2)OCO3)nn1-c1ccc(F)cc1 | 2.51 µM | > 39.8 µM | 3.16 µM | > 50.1 µM | 7.94 µM | > 39.8 µM | 2 µM | > 100 µM | 1 µM | 39.8 µM | 1.26 µM | > 50.1 µM
O=C(NCC1CCCCN1C(=O)c1cccc2ccccc12)c1ccccc1 (configuration not stated) | > 50.1 µM | 0.398 µM | 6.31 µM | > 50.1 µM | > 50.1 µM | 0.398 µM | > 50.1 µM | > 100 µM | 3.16 µM | > 100 µM | 5.01 µM | > 50.1 µM
CCN(Cc1nc2ccc(C(=O)N3CCN(c4ncccn4)CC3)cc2[nH]1)C1CCCc2cccnc21 (configuration not stated) | 1.58 µM | 2.51 µM | 1.26 µM | 15.8 µM | 3.98 µM | 5.01 µM | 5.01 µM | > 100 µM | 2 µM | 7.94 µM | 12.6 µM | 20 µM
O=C(Nc1ccccc1)Nc1nc(-c2ccccn2)cs1 | 0.251 µM | 1 µM | 0.631 µM | 1 µM | 0.398 µM | 1 µM | 1.58 µM | 25.1 µM | 0.631 µM | 31.6 µM | 1 µM | 6.31 µM
CCOc1ccc(OCC(=O)N2c3ccccc3CC2C(=O)NC)cc1 (configuration not stated) | > 50.1 µM | 0.501 µM | > 50.1 µM | > 50.1 µM | > 50.1 µM | 0.794 µM | > 50.1 µM | > 100 µM | > 50.1 µM | > 100 µM | > 50.1 µM | > 50.1 µM
COc1ccc(C(=O)Nc2ccc(NC(=O)CO)cc2)cc1 | > 50.1 µM | 0.251 µM | > 50.1 µM | > 50.1 µM | > 50.1 µM | 0.251 µM | > 50.1 µM | > 100 µM | > 50.1 µM | > 100 µM | > 50.1 µM | 20 µM
